Laboratory results from a compilation of properties of binary mixtures (doi:10.1007/s11581-010-0511-5).

Test: xn = mol fraction of the nth substance listed
Conditions: 101 kPa

CO + CCCC[N+]1(C)CCCC1.O=S(=O)([N-]S(=O)(=O)C(F)(F)F)C(F)(F)F
x2 = 0
Conditions	viscosity [mPa·s]
298.15 K	0.7
303.15 K	0.66
308.15 K	0.61
313.15 K	0.57
318.15 K	0.53

CCCC[N+]1(C)CCCC1.O=S(=O)([N-]S(=O)(=O)C(F)(F)F)C(F)(F)F + CO
Conditions	electrical conductivity [S/m]	viscosity [mPa·s]
293.15 K, x1 = 0.11	0.628	2.16
293.15 K, x1 = 0.16	1.22	3.9
293.15 K, x1 = 0.21	1.6	6.01
293.15 K, x1 = 0.32	1.98	10.65
293.15 K, x1 = 0.42	2.14	15.15
293.15 K, x1 = 0.47	2.04	17.28
293.15 K, x1 = 0.53	1.82	19.42
293.15 K, x1 = 0.58	1.63	21.7
293.15 K, x1 = 0.63	1.47	24.4
293.15 K, x1 = 0.68	1.23	27.6
293.15 K, x1 = 0.74	0.998	31.9
293.15 K, x1 = 0.79	0.82	37.6
293.15 K, x1 = 0.84	0.649	45.2
293.15 K, x1 = 0.89	0.402	55.3
293.15 K, x1 = 0.95	–	68.7
293.15 K, x1 = 1	0.229	86
298.15 K, x1 = 0.05	0.399	0.94
298.15 K, x1 = 0.11	0.684	1.93
298.15 K, x1 = 0.16	1.32	3.43
298.15 K, x1 = 0.21	1.73	5.24
298.15 K, x1 = 0.32	2.15	9.18
298.15 K, x1 = 0.37	2.32	11.1
298.15 K, x1 = 0.42	2.37	12.93
298.15 K, x1 = 0.47	2.33	14.69
298.15 K, x1 = 0.53	2.12	16.43
298.15 K, x1 = 0.58	1.88	18.28
298.15 K, x1 = 0.63	1.66	20.39
298.15 K, x1 = 0.68	1.43	23
298.15 K, x1 = 0.74	1.2	26.3
298.15 K, x1 = 0.79	0.991	30.8
298.15 K, x1 = 0.84	0.786	36.7
298.15 K, x1 = 0.89	0.495	44.6
298.15 K, x1 = 0.95	–	54.9
298.15 K, x1 = 1	0.282	68.1
303.15 K, x1 = 0.05	0.43	0.88
303.15 K, x1 = 0.11	0.754	1.75
303.15 K, x1 = 0.16	1.43	3.06
303.15 K, x1 = 0.21	1.88	4.62
303.15 K, x1 = 0.32	2.35	7.96
303.15 K, x1 = 0.37	2.53	9.57
303.15 K, x1 = 0.47	2.59	12.57
303.15 K, x1 = 0.53	2.37	14.02
303.15 K, x1 = 0.58	2.1	15.54
303.15 K, x1 = 0.63	1.84	17.28
303.15 K, x1 = 0.68	1.6	19.39
303.15 K, x1 = 0.74	1.35	22.1
303.15 K, x1 = 0.79	1.13	25.6
303.15 K, x1 = 0.84	0.94	30.2
303.15 K, x1 = 0.89	0.601	36.2
303.15 K, x1 = 0.95	–	44
303.15 K, x1 = 1	0.344	54
308.15 K, x1 = 0.05	0.464	0.82
308.15 K, x1 = 0.11	0.816	1.6
308.15 K, x1 = 0.16	1.54	2.75
308.15 K, x1 = 0.21	2.07	4.1
308.15 K, x1 = 0.32	2.55	6.97
308.15 K, x1 = 0.37	2.74	8.34
308.15 K, x1 = 0.42	2.86	9.64
308.15 K, x1 = 0.53	2.65	12.09
308.15 K, x1 = 0.58	2.36	13.36
308.15 K, x1 = 0.63	2.1	14.8
308.15 K, x1 = 0.74	1.57	18.74
308.15 K, x1 = 0.79	1.33	21.6
308.15 K, x1 = 0.84	1.1	25.3
308.15 K, x1 = 0.89	0.686	30.2
308.15 K, x1 = 0.95	–	36.4
308.15 K, x1 = 1	0.415	44.4
313.15 K, x1 = 0.05	0.504	0.77
313.15 K, x1 = 0.11	0.86	1.47
313.15 K, x1 = 0.16	1.66	2.48
313.15 K, x1 = 0.21	2.24	3.67
313.15 K, x1 = 0.26	2.53	4.92
313.15 K, x1 = 0.37	2.95	7.34
313.15 K, x1 = 0.42	3.07	8.45
313.15 K, x1 = 0.47	3.09	9.51
313.15 K, x1 = 0.58	2.63	11.64
313.15 K, x1 = 0.63	2.38	12.85
313.15 K, x1 = 0.79	1.55	18.4
313.15 K, x1 = 0.89	0.876	25.1
313.15 K, x1 = 0.95	–	29.8
318.15 K, x1 = 0.05	0.538	0.73
318.15 K, x1 = 0.11	0.94	1.36
318.15 K, x1 = 0.16	1.8	2.26
318.15 K, x1 = 0.26	2.7	4.39
318.15 K, x1 = 0.32	3.02	5.45
318.15 K, x1 = 0.37	3.18	6.46
318.15 K, x1 = 0.42	3.26	7.41
318.15 K, x1 = 0.47	3.3	8.32
318.15 K, x1 = 0.53	3.18	9.22
318.15 K, x1 = 0.58	2.86	10.16
318.15 K, x1 = 0.74	1.98	14.02
318.15 K, x1 = 0.89	0.991	21.4
318.15 K, x1 = 1	0.559	29.7
